Reference: PubChem BioAssay (NCI)
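Each compound was tested at five concentrations against cells in 96-well plates for 48 hours. TGI denotes the concentration required for complete inhibition of growth.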

Legend:
Assay in all cases: NCI tumour cell line growth inhibition, 48 h
SF-539 CNS = tested on: SF-539 CNS
DMS 114 small cell lung = tested on: DMS 114 small cell lung
SNB-78 CNS = tested on: SNB-78 CNS
HT29 colon = tested on: HT29 colon
786-0 renal = tested on: 786-0 renal
HOP-62 NSCLC = tested on: HOP-62 NSCLC
OVCAR-8 ovarian = tested on: OVCAR-8 ovarian
A498 renal = tested on: A498 renal
NCI-H522 lung = tested on: NCI-H522 lung
UO-31 renal = tested on: UO-31 renal
UACC-257 melanoma = tested on: UACC-257 melanoma
SK-MEL-2 melanoma = tested on: SK-MEL-2 melanoma
SF-295 CNS = tested on: SF-295 CNS
TK-10 renal = tested on: TK-10 renal
UACC-62 melanoma = tested on: UACC-62 melanoma
EKVX NSCLC = tested on: EKVX NSCLC
MOLT-4 leukemia = tested on: MOLT-4 leukemia
COLO 205 colon = tested on: COLO 205 colon
HCC-2998 colon = tested on: HCC-2998 colon
SK-MEL-5 melanoma = tested on: SK-MEL-5 melanoma
RXF-631 renal = tested on: RXF-631 renal
A549 NSCLC = tested on: A549 NSCLC
DLD-1 colon = tested on: DLD-1 colon
CCRF-CEM leukemia = tested on: CCRF-CEM leukemia
SK-OV-3 ovarian = tested on: SK-OV-3 ovarian
SK-MEL-28 melanoma = tested on: SK-MEL-28 melanoma
KM12 colon = tested on: KM12 colon
RPMI-8226 leukemia = tested on: RPMI-8226 leukemia
HOP-92 NSCLC = tested on: HOP-92 NSCLC
XF 498 CNS = tested on: XF 498 CNS
IGROV1 ovarian = tested on: IGROV1 ovarian
NCI-H23 lung = tested on: NCI-H23 lung
ACHN renal = tested on: ACHN renal
LOX IMVI melanoma = tested on: LOX IMVI melanoma
OVCAR-5 ovarian = tested on: OVCAR-5 ovarian
NCI-H460 lung = tested on: NCI-H460 lung
KM20L2 colon = tested on: KM20L2 colon
OVCAR-3 ovarian = tested on: OVCAR-3 ovarian
U251 CNS = tested on: U251 CNS
MALME-3M melanoma = tested on: MALME-3M melanoma
K-562 leukemia = tested on: K-562 leukemia
M14 melanoma = tested on: M14 melanoma
SW-620 colon = tested on: SW-620 colon
SF-268 CNS = tested on: SF-268 CNS
LXFL 529 NSCLC = tested on: LXFL 529 NSCLC
NCI-H226 lung = tested on: NCI-H226 lung
M19-MEL melanoma = tested on: M19-MEL melanoma
RXF 393 renal = tested on: RXF 393 renal
HCT-116 colon = tested on: HCT-116 colon
HL-60(TB) leukemia = tested on: HL-60(TB) leukemia
SNB-75 CNS = tested on: SNB-75 CNS
SN12C renal = tested on: SN12C renal
SNB-19 CNS = tested on: SNB-19 CNS
DMS 273 small cell lung = tested on: DMS 273 small cell lung
CAKI-1 renal = tested on: CAKI-1 renal
HCT-15 colon = tested on: HCT-15 colon
OVCAR-4 ovarian = tested on: OVCAR-4 ovarian
HOP-18 NSCLC = tested on: HOP-18 NSCLC
HS 578T breast = tested on: HS 578T breast
T-47D breast = tested on: T-47D breast
MCF7 breast = tested on: MCF7 breast
BT-549 breast = tested on: BT-549 breast
MDA-MB-231 breast = tested on: MDA-MB-231 breast
PC-3 prostate = tested on: PC-3 prostate
MDA-N = tested on: MDA-N
DU-145 prostate = tested on: DU-145 prostate
SR leukemia = tested on: SR leukemia
MDA-MB-435 = tested on: MDA-MB-435
NCI/ADR-RES ovarian = tested on: NCI/ADR-RES ovarian

Measured: TGI

C/C(CC(=O)Nc1cc(Cl)c(Cl)cc1Cl)=N\NS(=O)(=O)c1ccc(C)cc1
59.6 µM: HCT-116 colon
75.9 µM: UACC-62 melanoma
77.9 µM: XF 498 CNS
82.9 µM: DMS 114 small cell lung
41.8 µM: NCI-H522 lung
> 100 µM: HT29 colon | 786-0 renal | HOP-62 NSCLC | OVCAR-8 ovarian | A498 renal | UACC-257 melanoma | SF-295 CNS | TK-10 renal | EKVX NSCLC | MOLT-4 leukemia | SK-MEL-5 melanoma | RXF-631 renal | A549 NSCLC | DLD-1 colon | CCRF-CEM leukemia | SK-OV-3 ovarian | SK-MEL-28 melanoma | KM12 colon | IGROV1 ovarian | LOX IMVI melanoma | OVCAR-5 ovarian | NCI-H460 lung | KM20L2 colon | U251 CNS | MALME-3M melanoma | K-562 leukemia | SW-620 colon | SF-268 CNS | LXFL 529 NSCLC | SNB-75 CNS
86.5 µM: HCC-2998 colon
79.8 µM: ACHN renal
94.4 µM: M19-MEL melanoma
53 µM: NCI-H226 lung
62.9 µM: HL-60(TB) leukemia
87.2 µM: RPMI-8226 leukemia
74.7 µM: OVCAR-3 ovarian
82.7 µM: RXF 393 renal
61.1 µM: COLO 205 colon
91.4 µM: M14 melanoma
52.3 µM: UO-31 renal
86.8 µM: SK-MEL-2 melanoma
54.6 µM: NCI-H23 lung
59 µM: HOP-92 NSCLC
93.7 µM: SNB-78 CNS
85.8 µM: SF-539 CNS

CC1(C)CC(=O)C=C(NC(=O)c2ccccc2)C1
> 100 µM: SF-539 CNS | DMS 114 small cell lung | SNB-78 CNS | HT29 colon | 786-0 renal | HOP-62 NSCLC | OVCAR-8 ovarian | A498 renal | NCI-H522 lung | UO-31 renal | UACC-257 melanoma | SK-MEL-2 melanoma | SF-295 CNS | TK-10 renal | UACC-62 melanoma | EKVX NSCLC | MOLT-4 leukemia | SN12C renal | COLO 205 colon | HCC-2998 colon | SNB-19 CNS | SK-MEL-5 melanoma | RXF-631 renal | A549 NSCLC | DMS 273 small cell lung | DLD-1 colon | CCRF-CEM leukemia | SK-OV-3 ovarian | SK-MEL-28 melanoma | KM12 colon | RPMI-8226 leukemia | HOP-92 NSCLC | CAKI-1 renal | XF 498 CNS | IGROV1 ovarian | NCI-H23 lung | LOX IMVI melanoma | NCI-H460 lung | OVCAR-3 ovarian | U251 CNS | MALME-3M melanoma | K-562 leukemia | M14 melanoma | SW-620 colon | SF-268 CNS | LXFL 529 NSCLC | HCT-15 colon | M19-MEL melanoma | RXF 393 renal | HCT-116 colon | HL-60(TB) leukemia | OVCAR-4 ovarian | SNB-75 CNS

O=C(O)CNCc1c2ccccc2nc2ccccc12
> 86.7 µM: NCI-H460 lung
> 77.6 µM: XF 498 CNS
57.5 µM: NCI-H522 lung
87.2 µM: SF-539 CNS
> 89.8 µM: OVCAR-4 ovarian
> 84.8 µM: HT29 colon
> 100 µM: SNB-78 CNS | HOP-62 NSCLC | OVCAR-8 ovarian | A498 renal | HOP-18 NSCLC | HS 578T breast | T-47D breast | SK-MEL-2 melanoma | SF-295 CNS | TK-10 renal | UACC-62 melanoma | EKVX NSCLC | MCF7 breast | SN12C renal | COLO 205 colon | HCC-2998 colon | SNB-19 CNS | A549 NSCLC | DMS 273 small cell lung | DLD-1 colon | BT-549 breast | MDA-MB-231 breast | SK-OV-3 ovarian | SK-MEL-28 melanoma | KM12 colon | IGROV1 ovarian | PC-3 prostate | NCI-H23 lung | ACHN renal | LOX IMVI melanoma | OVCAR-5 ovarian | OVCAR-3 ovarian | U251 CNS | MALME-3M melanoma | MDA-N | DU-145 prostate | M14 melanoma | SW-620 colon | SF-268 CNS | NCI-H226 lung | HCT-15 colon | MDA-MB-435 | NCI/ADR-RES ovarian | M19-MEL melanoma
44.9 µM: MOLT-4 leukemia
72.7 µM: DMS 114 small cell lung
29.6 µM: HL-60(TB) leukemia
> 60.4 µM: SK-MEL-5 melanoma
85.4 µM: HOP-92 NSCLC
> 91.5 µM: UO-31 renal
> 45.5 µM: HCT-116 colon
41.2 µM: CCRF-CEM leukemia
> 94.9 µM: UACC-257 melanoma
> 78.3 µM: RXF 393 renal
> 70.5 µM: SR leukemia
> 79.4 µM: SNB-75 CNS
71.9 µM: RPMI-8226 leukemia
> 71 µM: LXFL 529 NSCLC
> 82.7 µM: K-562 leukemia
> 90.8 µM: CAKI-1 renal
91.1 µM: KM20L2 colon
> 95.4 µM: 786-0 renal
